# Data published in ChEMBL document CHEMBL1201861, “Genomics of Drug Sensitity in Cancer screening data, Wellcome Trust Sanger Institute”.
# Legend:
# Assay in all cases: cells
# Conditions in all cases: Homo sapiens
# SK-LMS-1 = format: functional, cell-based;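 also: growth inhibition of human SK-LMS-1 cells, read out with a cell viability assay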
# Description: SANGER: Inhibition of human SK-LMS-1 cell growth in a cell viability assay.
# SW 954 = format: functional, cell-based;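 also: growth inhibition of SW954 human cancer cells, read out as cell viability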
# Description: SANGER: Inhibition of human SW954 cell growth in a cell viability assay.
# P30-OHK = format: functional, cell-based;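 also: growth inhibition of the P30-OHK cell line, read out with a cell viability assay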
# Description: SANGER: Inhibition of human P30-OHK cell growth in a cell viability assay.
# MOLT-4 = format: functional, cell-based;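 also: growth inhibition of MOLT-4 cells, determined with a cell viability readout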
# Description: SANGER: Inhibition of human MOLT-4 cell growth in a cell viability assay.
# OCI-AML2 = format: functional, cell-based;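 also: growth inhibition of OCI-AML2 cells, read out with a cell viability assay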
# Description: SANGER: Inhibition of human OCI-AML2 cell growth in a cell viability assay.
# RS4-11 = format: functional, cell-based;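 also: growth inhibition of RS4-11 cells, read out by a cell viability assay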
# Description: SANGER: Inhibition of human RS4-11 cell growth in a cell viability assay.
# GAK = format: functional, cell-based;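 also: cell growth inhibition read out by a cell viability assay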
# Description: SANGER: Inhibition of human GAK cell growth in a cell viability assay.
# REH = format: functional, cell-based;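 also: growth inhibition of REH cells determined with a cell viability read-out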
# Description: SANGER: Inhibition of human REH cell growth in a cell viability assay.
# HCE-4 = format: functional, cell-based;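 also: cell viability assay measuring inhibition of growth in the human HCE-4 cell line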
# Description: SANGER: Inhibition of human HCE-4 cell growth in a cell viability assay.
# RKO = format: functional, cell-based;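 also: growth inhibition of human RKO cells, read out with a cell viability assay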
# Description: SANGER: Inhibition of human RKO cell growth in a cell viability assay.
# DOHH-2 = format: functional, cell-based;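 also: growth inhibition of human DOHH-2 cells, read out with a cell viability assay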
# Description: SANGER: Inhibition of human DOHH-2 cell growth in a cell viability assay.
# MZ2-MEL = format: functional, cell-based;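 also: growth inhibition of MZ2-MEL cells read out with a cell viability assay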
# Description: SANGER: Inhibition of human MZ2-MEL cell growth in a cell viability assay.
# TE-6 = format: functional, cell-based;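 also: growth inhibition of TE-6 cells, read out with a cell viability assay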
# Description: SANGER: Inhibition of human TE-6 cell growth in a cell viability assay.
# GB-1 = format: functional, cell-based;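 also: growth of GB-1 cells judged by a viability assay, IC50 marks the concentration inhibiting growth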
# Description: SANGER: Inhibition of human GB-1 cell growth in a cell viability assay.
# KARPAS-45 = format: functional, cell-based;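 also: inhibition of cell line growth, read out through a viability assay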
# Description: SANGER: Inhibition of human KARPAS-45 cell growth in a cell viability assay.
# CAS-1 = format: functional, cell-based;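 also: growth inhibition of CAS-1 cells, measured with a cell viability assay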
# Description: SANGER: Inhibition of human CAS-1 cell growth in a cell viability assay.
# NEC8 = format: functional, cell-based;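 also: growth inhibition of human NEC8 cells, read out by a cell viability assay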
# Description: SANGER: Inhibition of human NEC8 cell growth in a cell viability assay.
# LS-123 = format: functional, cell-based
# Description: SANGER: Inhibition of human LS-123 cell growth in a cell viability assay.
# SNB-75 = format: functional, cell-based;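 also: cell viability assay measuring growth inhibition of human SNB-75 cells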
# Description: SANGER: Inhibition of human SNB75 cell growth in a cell viability assay.
# LB2241-RCC = format: functional, cell-based;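 also: cell viability assay measuring how strongly the cultured human renal carcinoma line is prevented from growing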
# Description: SANGER: Inhibition of human LB2241-RCC cell growth in a cell viability assay.
# QIMR-WIL = format: functional, cell-based;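 also: growth inhibition of QIMR-WIL cells, read out with a cell viability assay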
# Description: SANGER: Inhibition of human QIMR-WIL cell growth in a cell viability assay.
# KNS-81-FD = format: functional, cell-based;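 also: growth inhibition of KNS-81-FD cells, read out with a cell viability assay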
# Description: SANGER: Inhibition of human KNS-81-FD cell growth in a cell viability assay.
# GR-ST = format: functional, cell-based
# Description: SANGER: Inhibition of human GR-ST cell growth in a cell viability assay.
# LB2518-MEL = format: functional, cell-based;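 also: growth inhibition of human LB2518-MEL cells, measured with a cell viability assay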
# Description: SANGER: Inhibition of human LB2518-MEL cell growth in a cell viability assay.
# Ramos-2G6-4C10 = format: functional, cell-based;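 also: growth inhibition of the cell line, measured by a cell viability read-out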
# Description: SANGER: Inhibition of human Ramos-2G6-4C10 cell growth in a cell viability assay.
# SK-N-FI = format: functional, cell-based;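 also: cell viability assay measuring growth inhibition of human SK-N-FI cells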
# Description: SANGER: Inhibition of human SK-N-FI cell growth in a cell viability assay.
# UACC-257 = format: functional, cell-based
# Description: SANGER: Inhibition of human UACC-257 cell growth in a cell viability assay.
# DMS-79 = format: functional, cell-based;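 also: growth inhibition measured with a cell viability assay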
# Description: SANGER: Inhibition of human DMS-79 cell growth in a cell viability assay.
# SH-4 = format: functional, cell-based;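 also: growth inhibition of SH-4 cells, read out with a cell viability assay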
# Description: SANGER: Inhibition of human SH-4 cell growth in a cell viability assay.
# HD-MY-Z = format: functional, cell-based;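 also: growth inhibition of HD-MY-Z cells, read out with a cell viability assay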
# Description: SANGER: Inhibition of human HD-MY-Z cell growth in a cell viability assay.
# CTV-1 = format: functional, cell-based;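 also: growth inhibition of the cell line, read out with a cell viability assay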
# Description: SANGER: Inhibition of human CTV-1 cell growth in a cell viability assay.
# CA46 = format: functional, cell-based;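 also: growth inhibition of human CA46 cells, read out by a cell viability assay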
# Description: SANGER: Inhibition of human CA46 cell growth in a cell viability assay.
# SCC-15 = format: functional, cell-based;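 also: growth inhibition of SCC-15 cells, read out with a cell viability assay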
# Description: SANGER: Inhibition of human SCC-15 cell growth in a cell viability assay.
# MFM-223 = format: functional, cell-based
# Description: SANGER: Inhibition of human MFM-223 cell growth in a cell viability assay.
# SF-539 = format: functional, cell-based;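 also: Read-out is a cell viability assay, with IC50 reflecting inhibition of cell growth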
# Description: SANGER: Inhibition of human SF539 cell growth in a cell viability assay.
# EOL1 = format: functional, cell-based;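 also: growth inhibition of EoL-1 cells, read out by a cell viability assay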
# Description: SANGER: Inhibition of human EoL-1-cell cell growth in a cell viability assay.
# ML-2 = format: functional, cell-based;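 also: growth inhibition of ML-2 cells, measured with a cell viability readout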
# Description: SANGER: Inhibition of human ML-2 cell growth in a cell viability assay.
# ETK-1 = format: functional, cell-based;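 also: growth inhibition of human ETK-1 cells, read out with a cell viability assay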
# Description: SANGER: Inhibition of human ETK-1 cell growth in a cell viability assay.
# LOUCY = format: functional, cell-based;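 also: growth inhibition of human LOUCY cells, read out with a cell viability assay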
# Description: SANGER: Inhibition of human LOUCY cell growth in a cell viability assay.
# ES5 = format: functional, cell-based;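 also: growth inhibition of human ES5 cells, read out by a cell viability assay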
# Description: SANGER: Inhibition of human ES5 cell growth in a cell viability assay.
# NCI-H1395 = format: functional, cell-based;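 also: cell viability assay read-out quantifying reduced proliferation of human NCI-H1395 cells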
# Description: SANGER: Inhibition of human NCI-H1395 cell growth in a cell viability assay.
# KMOE-2 = format: functional, cell-based;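 also: growth inhibition of human KMOE-2 cells, read out with a cell viability assay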
# Description: SANGER: Inhibition of human KMOE-2 cell growth in a cell viability assay.
# KU812 cell line = format: functional, cell-based;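 also: growth inhibition of KU812 cells, read out with a cell viability assay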
# Description: SANGER: Inhibition of human KU812 cell growth in a cell viability assay.
# EW-13 = format: functional, cell-based;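 also: growth inhibition of EW-13 cells, read out with a cell viability assay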
# Description: SANGER: Inhibition of human EW-13 cell growth in a cell viability assay.
# OS-RC-2 = format: functional, cell-based;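 also: growth inhibition of human OS-RC-2 cells, measured by a cell viability assay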
# Description: SANGER: Inhibition of human OS-RC-2 cell growth in a cell viability assay.
# SNU-5 = format: functional, cell-based;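 also: cell viability readout used to measure growth inhibition in human NCI-SNU-5 cells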
# Description: SANGER: Inhibition of human NCI-SNU-5 cell growth in a cell viability assay.
# HH = format: functional, cell-based
# Description: SANGER: Inhibition of human HH cell growth in a cell viability assay.
# KG-1 = format: functional, cell-based;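 also: growth inhibition of KG-1 cells, read out by a cell viability assay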
# Description: SANGER: Inhibition of human KG-1 cell growth in a cell viability assay.
# IST-SL1 = format: functional, cell-based;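 also: growth inhibition of human IST-SL1 cells, read out with a cell viability assay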
# Description: SANGER: Inhibition of human IST-SL1 cell growth in a cell viability assay.
# TE-9 = format: functional, cell-based;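 also: cell growth inhibition, measured with a cell viability readout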
# Description: SANGER: Inhibition of human TE-9 cell growth in a cell viability assay.
# NCI-H1155 = format: functional, cell-based;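 also: cell growth inhibition measured by a viability assay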
# Description: SANGER: Inhibition of human NCI-H1155 cell growth in a cell viability assay.
# NOMO-1 = format: functional, cell-based;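 also: growth inhibition of human NOMO-1 cells measured by a cell viability assay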
# Description: SANGER: Inhibition of human NOMO-1 cell growth in a cell viability assay.
# NCI-H1304 = format: functional, cell-based;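 also: growth inhibition of the cancer cell line, measured in a cell viability assay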
# Description: SANGER: Inhibition of human NCI-H1304 cell growth in a cell viability assay.
# U-87 MG = format: functional, cell-based, U-87MG ATCC;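 also: growth inhibition of the cells measured with a viability assay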
# Description: SANGER: Inhibition of human U-87-MG cell growth in a cell viability assay.
# KM12 = format: functional, cell-based;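 also: KM12 cell growth inhibition, read out with a cell viability assay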
# Description: SANGER: Inhibition of human KM12 cell growth in a cell viability assay.
# HCE-T = format: functional, cell-based
# Description: SANGER: Inhibition of human HCE-T cell growth in a cell viability assay.
# HT-144 = format: functional, cell-based
# Description: SANGER: Inhibition of human HT-144 cell growth in a cell viability assay.
# DB = format: functional, cell-based
# Description: SANGER: Inhibition of human DB cell growth in a cell viability assay.
structure (smiles),measurement,setting,value
CCNc1cc(N[C@H]2CC[C@@H](O)CC2)nc(Nc2ccc3c(ccn3Cc3ccccc3)c2)n1,IC50,SK-LMS-1,> 5120 nM
same,IC50,SW 954,> 5120 nM
same,IC50,P30-OHK,> 5.12 µM
same,IC50,MOLT-4,> 5120 nM
same,IC50,OCI-AML2,> 5.12 µM
same,IC50,RS4-11,3.74 µM
same,IC50,GAK,> 5.12 µM
same,IC50,REH,> 5.12 µM
same,IC50,HCE-4,> 5120 nM
same,IC50,RKO,4720 nM
same,IC50,DOHH-2,3460 nM
same,IC50,MZ2-MEL,> 5.12 µM
same,IC50,TE-6,> 5120 nM
same,IC50,GB-1,> 5120 nM
same,IC50,KARPAS-45,> 5120 nM
same,IC50,CAS-1,> 5.12 µM
same,IC50,NEC8,> 5.12 µM
same,IC50,LS-123,> 5120 nM
same,IC50,SNB-75,> 5120 nM
same,IC50,LB2241-RCC,> 5.12 µM
same,IC50,QIMR-WIL,> 5120 nM
same,IC50,KNS-81-FD,> 5.12 µM
same,IC50,GR-ST,> 5120 nM
same,IC50,LB2518-MEL,> 5120 nM
same,IC50,Ramos-2G6-4C10,> 5120 nM
same,IC50,SK-N-FI,> 5120 nM
same,IC50,UACC-257,> 5.12 µM
same,IC50,DMS-79,> 5120 nM
same,IC50,SH-4,3310 nM
same,IC50,HD-MY-Z,> 5.12 µM
same,IC50,CTV-1,> 5120 nM
same,IC50,CA46,> 5.12 µM
same,IC50,SCC-15,> 5.12 µM
same,IC50,MFM-223,> 5.12 µM
same,IC50,SF-539,> 5.12 µM
same,IC50,EOL1,> 5120 nM
same,IC50,ML-2,> 5120 nM
same,IC50,ETK-1,242 nM
same,IC50,LOUCY,> 5120 nM
same,IC50,ES5,> 5.12 µM
same,IC50,NCI-H1395,> 5.12 µM
same,IC50,KMOE-2,> 5.12 µM
same,IC50,KU812 cell line,> 5120 nM
same,IC50,EW-13,> 5.12 µM
same,IC50,OS-RC-2,> 5120 nM
same,IC50,SNU-5,> 5.12 µM
same,IC50,HH,> 5120 nM
same,IC50,KG-1,> 5.12 µM
same,IC50,IST-SL1,> 5120 nM
same,IC50,TE-9,> 5120 nM
same,IC50,NCI-H1155,> 5120 nM
same,IC50,NOMO-1,> 5120 nM
same,IC50,NCI-H1304,> 5120 nM
same,IC50,U-87 MG,> 5.12 µM
same,IC50,KM12,> 5120 nM
same,IC50,HCE-T,> 5120 nM
same,IC50,HT-144,> 5120 nM
same,IC50,DB,> 5120 nM
COc1cc(C)c(Sc2cnc(NC(=O)c3ccc(CNC(C)C(C)(C)C)cc3)s2)cc1C(=O)N1CCN(C(C)=O)CC1 (configuration not stated),IC50,SK-LMS-1,> 10200 nM
same,IC50,SW 954,7790 nM
same,IC50,P30-OHK,> 10.2 µM
same,IC50,MOLT-4,> 10200 nM
same,IC50,OCI-AML2,7.48 µM
same,IC50,RS4-11,5.79 µM
same,IC50,GAK,> 10.2 µM
same,IC50,REH,> 10.2 µM
same,IC50,HCE-4,> 10200 nM
same,IC50,RKO,8840 nM
same,IC50,DOHH-2,> 10200 nM
same,IC50,MZ2-MEL,6.62 µM
same,IC50,TE-6,> 10200 nM
same,IC50,GB-1,9120 nM
same,IC50,KARPAS-45,> 10200 nM
same,IC50,CAS-1,> 10.2 µM
same,IC50,NEC8,> 10.2 µM
same,IC50,LS-123,> 10200 nM
same,IC50,SNB-75,7110 nM
same,IC50,LB2241-RCC,> 10.2 µM
same,IC50,QIMR-WIL,10100 nM
same,IC50,KNS-81-FD,> 10.2 µM
same,IC50,GR-ST,> 10200 nM
same,IC50,LB2518-MEL,> 10200 nM
same,IC50,Ramos-2G6-4C10,> 10200 nM
same,IC50,SK-N-FI,> 10200 nM
same,IC50,UACC-257,> 10.2 µM
same,IC50,DMS-79,> 10200 nM
same,IC50,SH-4,2490 nM
same,IC50,HD-MY-Z,9.44 µM
same,IC50,CTV-1,6300 nM
same,IC50,CA46,> 10.2 µM
same,IC50,SCC-15,> 10.2 µM
same,IC50,MFM-223,> 10.2 µM
same,IC50,SF-539,> 10.2 µM
same,IC50,EOL1,> 10200 nM
same,IC50,ML-2,3810 nM
same,IC50,ETK-1,2240 nM
same,IC50,LOUCY,> 10200 nM
same,IC50,ES5,> 10.2 µM
same,IC50,NCI-H1395,> 10.2 µM
same,IC50,KMOE-2,> 10.2 µM
same,IC50,KU812 cell line,8970 nM
same,IC50,EW-13,> 10.2 µM
same,IC50,OS-RC-2,8900 nM
same,IC50,SNU-5,> 10.2 µM
same,IC50,HH,> 10200 nM
same,IC50,KG-1,> 10.2 µM
same,IC50,IST-SL1,> 10200 nM
same,IC50,TE-9,> 10200 nM
same,IC50,NCI-H1155,> 10200 nM
same,IC50,NOMO-1,> 10200 nM
same,IC50,NCI-H1304,> 10200 nM
same,IC50,U-87 MG,> 10.2 µM
same,IC50,KM12,2840 nM
same,IC50,HCE-T,> 10200 nM
same,IC50,HT-144,3340 nM
same,IC50,DB,> 10200 nM
Cc1n[nH]c2ccc(-c3cncc(OC[C@@H](N)Cc4c[nH]c5ccccc45)c3)cc12 [A-443654],IC50,SK-LMS-1,276 nM
same,IC50,SW 954,177 nM
same,IC50,P30-OHK,> 1.02 µM
same,IC50,MOLT-4,131 nM
same,IC50,OCI-AML2,0.21 µM
same,IC50,RS4-11,0.168 µM
same,IC50,GAK,> 1.02 µM
same,IC50,REH,> 1.02 µM
same,IC50,HCE-4,104 nM
same,IC50,RKO,136 nM
same,IC50,DOHH-2,240 nM
same,IC50,MZ2-MEL,> 1.02 µM
same,IC50,TE-6,860 nM
same,IC50,GB-1,199 nM
same,IC50,KARPAS-45,296 nM
same,IC50,CAS-1,> 1.02 µM
same,IC50,NEC8,> 1.02 µM
same,IC50,LS-123,337 nM
same,IC50,SNB-75,116 nM
same,IC50,LB2241-RCC,> 1.02 µM
same,IC50,QIMR-WIL,256 nM
same,IC50,KNS-81-FD,> 1.02 µM
same,IC50,GR-ST,448 nM
same,IC50,LB2518-MEL,397 nM
same,IC50,Ramos-2G6-4C10,170 nM
same,IC50,SK-N-FI,845 nM
same,IC50,UACC-257,> 1.02 µM
same,IC50,DMS-79,750 nM
same,IC50,SH-4,185 nM
same,IC50,HD-MY-Z,> 1.02 µM
same,IC50,CTV-1,323 nM
same,IC50,CA46,> 1.02 µM
same,IC50,SCC-15,> 1.02 µM
same,IC50,MFM-223,> 1.02 µM
same,IC50,SF-539,> 1.02 µM
same,IC50,EOL1,165 nM
same,IC50,ML-2,192 nM
same,IC50,ETK-1,101 nM
same,IC50,LOUCY,158 nM
same,IC50,ES5,> 1.02 µM
same,IC50,NCI-H1395,> 1.02 µM
same,IC50,KMOE-2,> 1.02 µM
same,IC50,KU812 cell line,96.5 nM
same,IC50,EW-13,> 1.02 µM
same,IC50,OS-RC-2,175 nM
same,IC50,SNU-5,> 1.02 µM
same,IC50,HH,223 nM
same,IC50,KG-1,> 1.02 µM
same,IC50,IST-SL1,434 nM
same,IC50,TE-9,389 nM
same,IC50,NCI-H1155,564 nM
same,IC50,NOMO-1,561 nM
same,IC50,NCI-H1304,163 nM
same,IC50,U-87 MG,> 1.02 µM
same,IC50,KM12,141 nM
same,IC50,HCE-T,451 nM
same,IC50,HT-144,153 nM
same,IC50,DB,375 nM
Cc1nc(Nc2ncc(C(=O)Nc3c(C)cccc3Cl)s2)cc(N2CCN(CCO)CC2)n1 [DASATINIB],IC50,SK-LMS-1,> 1280 nM
same,IC50,SW 954,29.3 nM
same,IC50,P30-OHK,> 1.28 µM
same,IC50,MOLT-4,> 1280 nM
same,IC50,OCI-AML2,> 1.28 µM
same,IC50,RS4-11,> 1.28 µM
same,IC50,REH,> 1.28 µM
same,IC50,HCE-4,264 nM
same,IC50,RKO,530 nM
same,IC50,DOHH-2,17.2 nM
same,IC50,MZ2-MEL,0.285 µM
same,IC50,TE-6,1210 nM
same,IC50,GB-1,21.6 nM
same,IC50,KARPAS-45,> 1280 nM
same,IC50,CAS-1,> 1.28 µM
same,IC50,NEC8,> 1.28 µM
same,IC50,LS-123,141 nM
same,IC50,SNB-75,44.4 nM
same,IC50,LB2241-RCC,> 1.28 µM
same,IC50,QIMR-WIL,706 nM
same,IC50,KNS-81-FD,> 1.28 µM
same,IC50,GR-ST,> 1280 nM
same,IC50,LB2518-MEL,142 nM
same,IC50,Ramos-2G6-4C10,> 1280 nM
same,IC50,SK-N-FI,> 1280 nM
same,IC50,UACC-257,> 1.28 µM
same,IC50,DMS-79,> 1280 nM
same,IC50,SH-4,184 nM
same,IC50,HD-MY-Z,> 1.28 µM
same,IC50,CTV-1,< 5 nM
same,IC50,CA46,> 1.28 µM
same,IC50,SCC-15,> 1.28 µM
same,IC50,MFM-223,> 1.28 µM
same,IC50,SF-539,> 1.28 µM
same,IC50,EOL1,< 5 nM
same,IC50,ML-2,> 1280 nM
same,IC50,ETK-1,28.3 nM
same,IC50,LOUCY,> 1280 nM
same,IC50,ES5,> 1.28 µM
same,IC50,NCI-H1395,> 1.28 µM
same,IC50,KMOE-2,> 1.28 µM
same,IC50,KU812 cell line,119 nM
same,IC50,EW-13,> 1.28 µM
same,IC50,OS-RC-2,20.3 nM
same,IC50,SNU-5,> 1.28 µM
same,IC50,HH,> 1280 nM
same,IC50,KG-1,> 1.28 µM
same,IC50,IST-SL1,> 1280 nM
same,IC50,TE-9,875 nM
same,IC50,NCI-H1155,> 1280 nM
same,IC50,NOMO-1,> 1280 nM
same,IC50,NCI-H1304,> 1280 nM
same,IC50,U-87 MG,> 1.28 µM
same,IC50,KM12,> 1280 nM
same,IC50,HCE-T,> 1280 nM
same,IC50,HT-144,536 nM
same,IC50,DB,> 1280 nM
